From ChEMBL document CHEMBL1201862, “PubChem BioAssay data set” (2004)
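Results reflect a 48-hour exposure of cells in 96-well plates to compound at five concentrations. Abbreviation: GI50, concentration required for 50% inhibition of growth.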 Activity calls are given as the source filed them. No stated cut-off is given here; in the data, active = GI50 up to about 1.1 µM and inactive = higher.

Assays:
Assay in all cases: inhibition of tumour cell growth, NCI panel, 48 h
A498 = test system: A498
K562 = test system: K562
LOX IMVI = test system: LOX IMVI
MDA-MB-231 = test system: MDA-MB-231
MDA-N = test system: MDA-N
Malme-3M = test system: Malme-3M
NCI-H226 = test system: NCI-H226
NCI-H23 = test system: NCI-H23
NCI-H522 = test system: NCI-H522
OVCAR-4 = test system: OVCAR-4
OVCAR-8 = test system: OVCAR-8
SF-268 = test system: SF-268
SNB-19 = test system: SNB-19
SR = test system: SR
TK-10 = test system: TK-10
UACC-62 = test system: UACC-62
UO-31 = test system: UO-31
COLO 205 = test system: COLO 205
HL-60 = test system: HL-60
MCF7 = test system: MCF7

| SMILES | GI50 (A498) | GI50 (K562) | GI50 (LOX IMVI) | GI50 (MDA-MB-231) | GI50 (MDA-N) | GI50 (Malme-3M) | GI50 (NCI-H226) | GI50 (NCI-H23) | GI50 (NCI-H522) | GI50 (OVCAR-4) | GI50 (OVCAR-8) | GI50 (SF-268) | GI50 (SNB-19) | GI50 (SR) | GI50 (TK-10) | GI50 (UACC-62) | GI50 (UO-31) | GI50 (COLO 205) | GI50 (HL-60) | GI50 (MCF7) |
| --- | --- | --- | --- | --- | --- | --- | --- | --- | --- | --- | --- | --- | --- | --- | --- | --- | --- | --- | --- | --- |
| NC(=O)NC(CC(=O)O)C(=O)O (centres undefined) | > 100 µM (inactive) | > 100 µM (inactive) | > 100 µM (inactive) | > 100 µM (inactive) | > 100 µM (inactive) | > 100 µM (inactive) | > 100 µM (inactive) | > 100 µM (inactive) | > 100 µM (inactive) | > 100 µM (inactive) | > 100 µM (inactive) | > 100 µM (inactive) | > 100 µM (inactive) | > 100 µM (inactive) | > 100 µM (inactive) | > 100 µM (inactive) | > 100 µM (inactive) |  |  |  |
| Cc1ccc(I)cc1N=C=S | 21.2 µM (inactive) | 23 µM (inactive) | 22.2 µM (inactive) | 28.2 µM (inactive) | 27.9 µM (inactive) | 25.1 µM (inactive) | 18.3 µM (inactive) | 19.9 µM (inactive) | 17.2 µM (inactive) | 26.9 µM (inactive) | 38.4 µM (inactive) | 27.6 µM (inactive) | 23.5 µM (inactive) |  | 36 µM (inactive) | 17.3 µM (inactive) | 17.3 µM (inactive) | 18.2 µM (inactive) | 21.6 µM (inactive) | 21.2 µM (inactive) |
| CCOC(=O)C(NC(=O)c1ccccc1)(Nc1ccc(S(=O)(=O)Nc2nc(C)cc(C)n2)cc1)C(F)(F)F (centres undefined) |  | > 100 µM (inactive) | > 100 µM (inactive) | 86.5 µM (inactive) | > 100 µM (inactive) | > 100 µM (inactive) | > 100 µM (inactive) | > 100 µM (inactive) |  | > 100 µM (inactive) | > 100 µM (inactive) | > 100 µM (inactive) | > 100 µM (inactive) | > 100 µM (inactive) | > 100 µM (inactive) | > 100 µM (inactive) | > 100 µM (inactive) | > 100 µM (inactive) | > 100 µM (inactive) | > 100 µM (inactive) |
| O=C1C=CC(=O)C(CNc2ccc(C(=O)OC34CC5CC(CC(C5)C3)C4)cc2)=C1Br | 17.9 µM (inactive) | 5.58 µM (inactive) | 9.48 µM (inactive) | 10.2 µM (inactive) | 15.6 µM (inactive) | 4.9 µM (inactive) | 16.7 µM (inactive) | 7.35 µM (inactive) | 0.435 µM (active) | 5.19 µM (inactive) | 5.51 µM (inactive) | 12.2 µM (inactive) | 15.6 µM (inactive) |  | 13.9 µM (inactive) | 7.38 µM (inactive) | 6.75 µM (inactive) | 7.29 µM (inactive) | 1.66 µM (inactive) | 15.9 µM (inactive) |
| c1csc(-c2csc(-c3cccs3)c2)c1 | > 100 µM (inactive) |  | 57.7 µM (inactive) | > 100 µM (inactive) |  | 51.8 µM (inactive) |  | 24.3 µM (inactive) | 29.4 µM (inactive) | 77.4 µM (inactive) | > 100 µM (inactive) | 84.5 µM (inactive) | 32.4 µM (inactive) | 23.5 µM (inactive) | 67.1 µM (inactive) | 20.8 µM (inactive) | 57.8 µM (inactive) | 18 µM (inactive) | 37.5 µM (inactive) | 8.85 µM (inactive) |
| COC(c1ccsc1)C(C#N)(C#N)/N=C/c1ccsc1 (centres undefined) | 14.9 µM (inactive) | 13 µM (inactive) | 10.3 µM (inactive) | 7.4 µM (inactive) | 16 µM (inactive) | 15.3 µM (inactive) | 21.6 µM (inactive) | 13.1 µM (inactive) | 6.73 µM (inactive) | 20.9 µM (inactive) | 18.1 µM (inactive) | 16.1 µM (inactive) | 23 µM (inactive) |  | 17.7 µM (inactive) | 15.2 µM (inactive) | 13.4 µM (inactive) | 16.5 µM (inactive) | 3.18 µM (inactive) | 2.18 µM (inactive) |
| COc1cc2[nH]c(=O)c3cc(C)cc4c(Cl)nc(c1OC)c2c43 |  | 67.8 µM (inactive) | 53.2 µM (inactive) | 76.6 µM (inactive) | > 100 µM (inactive) | 18 µM (inactive) | 45.7 µM (inactive) | 85.5 µM (inactive) | 36.3 µM (inactive) | > 100 µM (inactive) | 95.9 µM (inactive) | 20.4 µM (inactive) | 42 µM (inactive) |  | 31.2 µM (inactive) | 28.3 µM (inactive) | > 100 µM (inactive) | 72.6 µM (inactive) | 18.8 µM (inactive) | 32.9 µM (inactive) |
| COC(=O)C1=C(O)C(C(=O)OC)[C@]2(O)[C@H](C(=O)OC)[C@H]1C[C@@H](c1ccc([N+](=O)[O-])cc1)[C@H]2C(=O)OC (some centres undefined) |  | 10.2 µM (inactive) | 13 µM (inactive) | 24.6 µM (inactive) | 7.91 µM (inactive) | 3.46 µM (inactive) | 24.9 µM (inactive) | 13.2 µM (inactive) | 2.46 µM (inactive) | 34.8 µM (inactive) | 17.6 µM (inactive) | 16.9 µM (inactive) | 19 µM (inactive) |  | 74.1 µM (inactive) | 12.4 µM (inactive) |  | 25 µM (inactive) | 14.3 µM (inactive) |  |
| COC(=O)c1ccc(/N=N/N(C)COc2ccc(C#N)cc2)cc1 | > 100 µM (inactive) | 35.2 µM (inactive) | 56.1 µM (inactive) | > 100 µM (inactive) | > 100 µM (inactive) | > 100 µM (inactive) | > 100 µM (inactive) | > 100 µM (inactive) | > 100 µM (inactive) | > 100 µM (inactive) | > 100 µM (inactive) | > 100 µM (inactive) | > 100 µM (inactive) |  | > 100 µM (inactive) |  | 77.3 µM (inactive) | 61.2 µM (inactive) | 16.6 µM (inactive) | > 100 µM (inactive) |
| COc1ccc2c(c1)[nH]c1c3ccc(OC)cc3oc(=O)c21 | > 100 µM (inactive) | > 100 µM (inactive) | > 100 µM (inactive) | 92 µM (inactive) | 0.9 µM (active) | > 100 µM (inactive) | > 100 µM (inactive) | > 100 µM (inactive) |  | > 100 µM (inactive) | > 100 µM (inactive) | > 100 µM (inactive) | > 100 µM (inactive) |  | > 100 µM (inactive) | > 100 µM (inactive) | > 100 µM (inactive) | > 100 µM (inactive) | 0.867 µM (active) | 5.73 µM (inactive) |
| COC(=O)c1c(O)ccc2c1c1c(n2Cc2ccc(OC)cc2)C(=O)c2ccccc2C1=O | 20.5 µM (inactive) | 3.28 µM (inactive) | 5.85 µM (inactive) |  | 12.5 µM (inactive) | 39.9 µM (inactive) | 10.4 µM (inactive) | 11 µM (inactive) | 4.1 µM (inactive) | 12.3 µM (inactive) | 2.4 µM (inactive) | 12.4 µM (inactive) | 22.5 µM (inactive) | 0.251 µM (active) | 45.7 µM (inactive) |  | 3.92 µM (inactive) | 1.84 µM (inactive) | 0.308 µM (active) | 4.49 µM (inactive) |
| COC1=Nc2ccccc2S(=O)(=O)C=C1 | 16.8 µM (inactive) |  | 2.84 µM (inactive) | 13.2 µM (inactive) | 7.4 µM (inactive) | 2.5 µM (inactive) | > 87.3 µM (inactive) | 6.35 µM (inactive) | 1.21 µM (inactive) | 10.1 µM (inactive) | 4.35 µM (inactive) | 20.8 µM (inactive) | 24.7 µM (inactive) |  | 2.75 µM (inactive) | 17.9 µM (inactive) | 5.46 µM (inactive) | 1.79 µM (inactive) | 0.195 µM (active) | 2.61 µM (inactive) |
| CCCCCCCCCc1cc(=O)c2c(O)cc(O)cc2o1 | 18.1 µM (inactive) | 10.2 µM (inactive) | 21.8 µM (inactive) | > 100 µM (inactive) | > 100 µM (inactive) | 16.4 µM (inactive) | 17.8 µM (inactive) | 18.5 µM (inactive) | 15.1 µM (inactive) | 24.3 µM (inactive) | 20.2 µM (inactive) | 3.82 µM (inactive) | 18.9 µM (inactive) | 15.2 µM (inactive) | 18.8 µM (inactive) |  | 16.9 µM (inactive) | 27.2 µM (inactive) | 14.3 µM (inactive) |  |
| O=C(O)[C@H]1[C@@H](C2CCCCC2)O[C@@H](C2CCCCC2)O[C@H]1C(F)(F)F | 19 µM (inactive) | 33.1 µM (inactive) | 19.9 µM (inactive) | 18.2 µM (inactive) | 16.9 µM (inactive) | 28.6 µM (inactive) | 21.1 µM (inactive) | 21.3 µM (inactive) | 52.2 µM (inactive) | 36.2 µM (inactive) | 22 µM (inactive) | 20.2 µM (inactive) | 27.5 µM (inactive) | 20.7 µM (inactive) | 60.1 µM (inactive) | 18.5 µM (inactive) | 26.2 µM (inactive) | 20.4 µM (inactive) | 26.9 µM (inactive) |  |
| COc1cccc(-c2cc(O)c3cc(NC(C)=O)ccc3n2)c1 | 17 µM (inactive) |  | 22.5 µM (inactive) | 31.4 µM (inactive) |  | 5.05 µM (inactive) |  | 26.8 µM (inactive) | 5.11 µM (inactive) |  | 25.6 µM (inactive) | 6.3 µM (inactive) | 8.41 µM (inactive) | 2.34 µM (inactive) | > 100 µM (inactive) | 17.4 µM (inactive) | 71.6 µM (inactive) | 22.4 µM (inactive) |  | 5.65 µM (inactive) |
| COc1cc(C(=O)O[C@H]2CCC3CCC2N3C)cc(OC)c1OC (some centres undefined) | 36.3 µM (inactive) | > 100 µM (inactive) | > 100 µM (inactive) | > 100 µM (inactive) |  | > 100 µM (inactive) | > 100 µM (inactive) | > 100 µM (inactive) |  | > 100 µM (inactive) | > 100 µM (inactive) | > 100 µM (inactive) | > 100 µM (inactive) | > 100 µM (inactive) | > 100 µM (inactive) |  | 43.2 µM (inactive) | > 100 µM (inactive) | 63.7 µM (inactive) | > 100 µM (inactive) |
